Laboratory results taken from patent publication US5679680A, “α-substituted hydrazides having calpain inhibitory activity” (Warner-Lambert Company, priority 1995, dated 1997).

Assays:
Human Calpain I = target: T1, Human Calpain I (Homo sapiens, UniProt P07384); test: Calpain I activity, casein substrate, Coomassie microplate assay; assay type: biochemical
T1 construct: Calpain I was purified from human erythrocytes; from tissue; host or cells: human erythrocytes
T1 sequence (P07384 1-714): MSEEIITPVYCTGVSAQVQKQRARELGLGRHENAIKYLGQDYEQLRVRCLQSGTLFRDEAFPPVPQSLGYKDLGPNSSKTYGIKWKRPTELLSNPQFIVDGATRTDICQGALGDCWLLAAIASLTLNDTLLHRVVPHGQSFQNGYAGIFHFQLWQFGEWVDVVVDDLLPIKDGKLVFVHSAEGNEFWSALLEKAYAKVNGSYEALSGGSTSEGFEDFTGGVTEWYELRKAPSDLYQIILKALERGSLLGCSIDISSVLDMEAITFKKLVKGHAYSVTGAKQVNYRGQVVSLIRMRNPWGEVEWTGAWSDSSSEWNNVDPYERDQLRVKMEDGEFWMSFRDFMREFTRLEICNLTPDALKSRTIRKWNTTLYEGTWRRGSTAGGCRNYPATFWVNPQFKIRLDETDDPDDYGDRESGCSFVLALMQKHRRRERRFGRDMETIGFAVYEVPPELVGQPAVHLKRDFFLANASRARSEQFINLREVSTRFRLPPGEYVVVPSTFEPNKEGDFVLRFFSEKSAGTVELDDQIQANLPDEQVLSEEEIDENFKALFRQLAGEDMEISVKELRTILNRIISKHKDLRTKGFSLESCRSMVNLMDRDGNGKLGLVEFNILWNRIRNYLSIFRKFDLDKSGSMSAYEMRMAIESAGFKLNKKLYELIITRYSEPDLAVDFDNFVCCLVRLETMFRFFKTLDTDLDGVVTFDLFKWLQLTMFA
T1 sequence (P04632 1-268 partner): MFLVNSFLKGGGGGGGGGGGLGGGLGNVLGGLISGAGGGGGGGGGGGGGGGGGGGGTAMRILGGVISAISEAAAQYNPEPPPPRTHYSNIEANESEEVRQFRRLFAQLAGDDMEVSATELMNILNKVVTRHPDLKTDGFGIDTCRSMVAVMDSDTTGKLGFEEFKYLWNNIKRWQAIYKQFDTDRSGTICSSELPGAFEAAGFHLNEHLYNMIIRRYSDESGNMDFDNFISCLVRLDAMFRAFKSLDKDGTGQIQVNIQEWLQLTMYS
Procedure: Assay of calpain activity: Calpain I was purified from human erythrocytes as described by Wang K K W, Roufogalis B D, and Villalobo A, Arch Biochem Biophys 1988;267: 317-327. Calpain activity was assayed in a 96-well microplate format (Buroker-Kilgore M and Wang K K W, Anal Bio Chem 1993;208: 387-392). In 250 μL of reaction mixture, substrate casein (0.5 mg/mL) was incubated with 0.01 unit (80-120 ng) calpain I, 20 mM dithiothreitol (DTT), 50 mM Tris-HCl (pH 7.4 at 25° C.) and 4 mM CaCl2 at 25° C. for 60 minutes. Two 100-μL aliquots were taken for Coomassie blue G250 binding analysis to quantify the remaining casein.
Compound concentrations that cause 50% inhibition (IC50) are as shown (Table I). The second rate of inactivation of calpain I for 2 compounds are also shown.
(§1) Selectivity of α-substituted Hydrazides: Calpain I and II were assayed as described in Example 1. One to 2 ng papain (papaya latex, Sigma, P3125), 1.25 μg trypsin (bovine pancreas, Sigma, T8003), 5 μg thermolysin (Bacillus thermoproteolyticus, Sigma, P1512) were assayed using 0.5 mg/mL casein as substrate in the microplate format (250 μL reaction volume), essentially a described by Buroker-Kilgore, M. and Wang K K W, Anal Biochem 1993;208: 387-392. Cathepsin B (0.002 unit, bovine spleen) was assayed with 50 mM MES (pH 5.5), 100 μM carbobenzoxy-Arg-Arg-4-methoxy-beta-naphthlamide (Cbz-Arg-Arg-MNA), inhibitor, and 2 mM DTT in 200 μL for 60 minutes at room temperature. Fifty-microliter aliquots were transferred to a fluorescence-compatible plate and then read with a Perkin-Elmer fluorometer LS-50B (excitation 340 nm and emission 425 nm). Calcineurin (bovine brain, Sigma) (5 μg, 0.8 unit) was assayed with 10 mM p-nitrophenyl phosphate in 1 mM DTT, 1 mM CaCl2, 1 mM MnCl2, […] calmodulin (CaM, if added), and 50 mM Tris-HCl (pH 7.4) at 25° C. for 60 minutes or more. Production of p-nitrophenol was monitored at 405 nm. Inhibition of these proteases are presented as IC50.

Trypsin = target: T2, Trypsin (Bos taurus, UniProt P00760); test: Trypsin assay, casein substrate; assay type: biochemical, bovine; details: 0.5 mg/mL casein
T2 construct: purchased Sigma T8003; host or cells: bovine pancreas
T2 sequence (P00760 24-246): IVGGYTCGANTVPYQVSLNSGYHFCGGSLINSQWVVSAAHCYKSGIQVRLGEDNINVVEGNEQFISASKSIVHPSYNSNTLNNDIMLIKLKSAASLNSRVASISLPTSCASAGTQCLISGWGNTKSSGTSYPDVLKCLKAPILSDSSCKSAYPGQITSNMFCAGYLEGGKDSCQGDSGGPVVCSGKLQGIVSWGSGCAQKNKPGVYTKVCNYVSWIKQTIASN
Procedure: as §1

Thermolysin = target: T3, Thermolysin (Bacillus thermoproteolyticus, UniProt P00800); test: Thermolysin assay, casein substrate; assay type: biochemical
T3 construct: purchased Sigma P1512; host or cells: Bacillus thermoproteolyticus
Procedure: as §1

[1] = system: Fetal Rat Cerebrocortical Cultures; test: Oxygen/glucose deprivation induced LDH release from fetal rat cerebrocortical cultures; assay type: cell-based
[2] = system: Purkinje cells in cerebellar slices; test: AMPA toxicity to Purkinje cells in cerebellar slices; assay type: cell-based, rat; details: 100 μM compound
Procedure: (ii) Neuroprotective effects of the compound of Example 5 against AMPA toxicity to Purkinje cells in cerebellar Slices: Cerebellar slices were acutely isolated from adult rats and maintained in an oxygenated bath for the duration of the experiment as described elsewhere (Caner, et al., Brain Research 1993;607: 354-356). Example 5 (100 μM) was added to the ACSF (124 mM NaCl, 3.3 mM KCl, 2 mM CaCl2, 25.7 mM NaHCO3, 2.4 mM MgSO4, 1.25 mM KH2 PO4, 10 mM glucose) 60 minutes before the addition of amino-3-hydroxy-5-methyl-4-isoxazole propionic acid (AMPA; 30 μM for 30 minutes). The slices were then allowed to recover in normal ACSF for an additional 90 minutes. Histological damage to Purkinje cells was identified and quantified as described in detail elsewhere (Caner, et al., Brain Research 1993;607: 354-356).

T3 sequence (P00800 233-548): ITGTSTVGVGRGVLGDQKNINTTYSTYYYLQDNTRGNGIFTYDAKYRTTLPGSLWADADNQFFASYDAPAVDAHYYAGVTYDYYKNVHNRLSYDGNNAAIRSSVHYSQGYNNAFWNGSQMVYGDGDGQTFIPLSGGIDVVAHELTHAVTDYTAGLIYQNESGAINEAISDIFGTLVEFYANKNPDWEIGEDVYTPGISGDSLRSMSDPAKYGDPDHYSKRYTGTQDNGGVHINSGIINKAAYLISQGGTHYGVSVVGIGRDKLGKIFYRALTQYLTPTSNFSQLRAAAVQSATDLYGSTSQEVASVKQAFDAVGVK

O=C(CCl)NN=c1[nH]c2ccccc2n(-c2ccccc2)c1=O [Example 5, 2-Chloro-acetic acid (3-oxo-4-phenyl-3,4-dihydro-1H-quinoxalin-2-ylidene)-hydrazide]
Ki/[I] Calpain I (second rate of inactivation) (Human Calpain I): 109 M⁻¹ s⁻¹
IC50 (Human Calpain I; casein 0.5 mg/mL, pH 7.4, 25° C., 60 minutes (Table I)): 364 nM
IC50 (Trypsin): > 200 µM
IC50 (Thermolysin): > 500 µM
LDH release ([1]; Hypoxia/Hypoglycemia, mean ± SEM (6), p < 0.001 vs Hypoxia/Hypoglycemia alone (143.81 ± 9.72), Normoxia 46.13 ± 6.08): 57.27 ± 8.11 Unit/mL
Resistance of neurons to oxygen/glucose deprivation ([1]; LDH release after 24 hours): enabled the neurons to resist the oxygen/glucose deprivation for longer
AMPA-induced neurotoxicity ([2]; AMPA 30 μM): can be ameliorated
viability at 100 µM ([2]; Rattus norvegicus, purkinje, 0.5 h, AMPA 30 μM for 30 minutes, mean ± SEM (10), p < 0.005 vs AMPA alone (13.41 ± 2.34), Control 94.41 ± 0.97, read-out: % Live Purkinje Neurons): 51 ± 4.8%
